In US9790496B2, “Microrna compounds and methods for modulating MIR-21 activity” (Regulus Therapeutics, Inc., priority 2011, dated 2017):
Where “and” joins values, the source holds several entries; their conditions need not be identical. Identical values can stand only once. Entries after “also recorded” stand apart in the source; their conditions may differ.

Experiments:
[1] = system: miR-21; experiment: miR-21 luciferase sensor assay in Hela cells; format: cell-based
[2] = system: unilateral ureteral obstruction (UUO) model of fibrosis; experiment: UUO model: collagen area fraction of kidney tissue (picrosirius red histology); format: in vivo, mice; conditions: UUO comparison study, 25070 20 mg/kg s.c., irbesartan PO
Experimental: Control treatment groups included UUO only (sham) and UUO with PBS administered subcutaneously. An additional control group included UUO with Tween-MC/20 carrier perorally. 25070 administered subcutaneously at dose of 20 mg/kg at 5 days prior to, 2 days prior to, and 3 days after, the UUO procedure. Irbesartan was administered perorally on daily on days 0 through 7 following the UUO procedure. Animals were sacrificed on Day 10 following the UUO procedure. Kidney tissue was collected for measurement of collagen 1A1 and collagen 3A1 expression.
The ‘collagen area fraction’ is measured histologically through quantitative image processing of the area of kidney tissue that is stained red by the picrosirius red stain; the percent detected as red is normalized by the area of kidney section.

[3] = system: ischemia reperfusion injury/nephrectomy (IR/Nx) model; experiment: Ischemia reperfusion injury/nephrectomy (IR/Nx) model: urinary albumin to creatinine ratio; format: in vivo, mouse
Source text: An ischemia reperfusion injury/nephrectomy (IR/Nx) model is created in the mouse through temporary unilateral clamping of an artery in one kidney, which leads to tubule damage, inflammation, and fibrosis, followed by removal of the second kidney at a later timepoint. In this model, the acute kidney dysfunction phase is useful to test candidate agents for the treatment of acute kidney injury (i.e. up to about the first 5 days), and the later phases of kidney dysfunction are useful to model chronic fibrosis (i.e. after about the first 5 days).
Anti-miR-21 compounds were tested in the IR/Nx model. 25109, a 6-base mismatch to miR-21, was used as a control compound ([…]; where nucleosides not followed by a subscript indicate β-deoxynucleosides; nucleosides followed by a subscript “E” indicate 2′-MOE nucleosides; nucleosides followed by a subscript “S” indicate S-cEt nucleosides; and all internucleoside linkages are phosphorothioate internucleoside linkages).
Unilateral IR was induced for a period of 30 minutes. Treatment groups were as follows: sham IR procedure; IR with PBS administered subcutaneously; IR with mismatched control 25109 administered subcutaneously at a dose of 20 mg/kg; IR with anti-miR-21 compound 25070 administered subcutaneously at a dose of 20 mg/kg; and IR with anti-miR-21 compound 25923 administered subcutaneously at a dose of 20 mg/kg. PBS or anti-miR was administered on days 2, 3, 4, and 8 following IR. On day 8, the healthy kidney was removed by nephrectomy from each animal, and animals were sacrificed on day 9. Just prior to sacrifice, urine was collected by direct bladder puncture.
Urinary albumin to creatinine ratio was measured in the urine from each mouse. […] The geometric mean of the albumin to creatinine ratio in each group of mice was 16 μgAlb/mgCr (nephrectomy-only control), 127 μgAlb/mgCr (IR/Nx, PBS control), 140 μgAlb/mgCr (IR/Nx, 25109 control), 40 μgAlb/mgCr (IR/Nx, 25070), and 31 μgAlb/mgCr (IR/Nx, 25923). Blood urea nitrogen and serum creatinine levels were similar across all IR/Nx mice, and were elevated relative to nephrectomy-only control mice (data not shown).

[4] = In vivo stability: compound in kidney tissue after administration to mice; conditions: mice; by 7 days post-injection

Sequence: AECSATCSAGTCSTGAUSAAGCSTAE (ACATCAGTCTGATAAGCTA; modified nucleosides coded in name, code key not given here) [Compound 25070]
- luciferase value normalized to beta-galactosidase activity ([1]; 4 nM oligonucleotide, Hela cells, mock transfection 50): 99
- luciferase value normalized to beta-galactosidase activity ([1]; .16 nM oligonucleotide, Hela cells, mock transfection 45): 65
- luciferase value normalized to beta-galactosidase activity ([1]; .8 nM oligonucleotide, Hela cells, mock transfection 33): 87
- inhibition of miR-21 in the luciferase assay (in words) ([1]; Hela cells): demonstrated inhibition of miR-21 in a dose-dependent manner; also recorded: potent inhibitor of miR-21 activity
- fold change in luciferase value relative to the mock treatment ([1]; concentration of anti-miR compound 0.2 (unit not given)): 1.04
- fold change in luciferase value relative to the mock treatment ([1]; concentration of anti-miR compound 0.6 (unit not given)): 1.01
- fold change in luciferase value relative to the mock treatment ([1]; concentration of anti-miR compound 1.9 (unit not given)): 1.14
- fold change in luciferase value relative to the mock treatment ([1]; concentration of anti-miR compound 5.6 (unit not given)): 6.22
- fold change in luciferase value relative to the mock treatment ([1]; concentration of anti-miR compound 16.7 (unit not given)): 11.28
- fold change in luciferase value relative to the mock treatment ([1]; concentration of anti-miR compound 50.0 (unit not given)): 11.00
- Collagen Area Fraction (%), Mean ([2]; group mean): 8.0%
- Collagen Area Fraction (%), individual animal ([2]; sacrifice Day 10, 20 mg/kg): 7.632% and 9.937% and 8.015% and 6.611% and 6.319% and 11.272% and 6.803% and 7.405%
- reduction in urinary albumin to creatinine ratio (in words) ([3]; s.c. 20 mg/kg on days 2, 3, 4, 8): statistically significant reductions
- geometric mean of the urinary albumin to creatinine ratio ([3]; s.c. 20 mg/kg on days 2, 3, 4, 8, urine day 9, PBS control 127, nephrectomy-only 16): 40 μgAlb/mgCr
- compound present in kidney tissue lacking the 3'-terminal nucleoside [4]: about 50%
